# Assay results published in patent US12157717B2, “Compounds for the treatment of bovine or swine respiratory disease” (Intervet Inc., priority 2018, dated 2024).
# Key:
# Type in all cases: cell-based
# [1] = system: Mannheimia haemolytica MH 13065 (XB0446-6003.9); assay: MIC, broth-microdilution (CLSI), strain MH 13065; conditions: Mannheimia haemolytica XB0446-6003.9, BRD field isolate
# Experimental: (§1) The Minimum inhibitory concentrations (MIC) of compounds according to the invention for a number of veterinary bacterial pathogens were determined by the broth-microdilution method according to CLSI document VETO 1-A4.
# (§2) Microdilution trays containing a doubling dilution series of the test compound were used for the tests. The MIC results were interpreted according to the CLSI documents VET01-S3. The lowest concentration of compound at which no visible growth (i.e. no turbidity) detected by the unaided eye was recorded as the MIC.
# [2] = system: Mannheimia haemolytica MH 13093 (XB0472-6014.1); assay: MIC, broth-microdilution (CLSI), strain MH 13093; conditions: Mannheimia haemolytica XB0472-6014.1, BRD field isolate
# Experimental: as §1, §2
# [3] = system: Pasteurella multocida PM 6267 (P 2225 (L386)); assay: MIC, broth-microdilution (CLSI), strain PM 6267; conditions: Pasteurella multocida P 2225 (L386), reference strain (mouse infection strain)
# Experimental: as §1, §2
# [4] = system: Mannheimia haemolytica MH 12587 (1071), macrolide-resistance: erm+, E+; assay: MIC, broth-microdilution (CLSI), strain MH 12587; conditions: Mannheimia haemolytica 1071, BRD field isolate
# Experimental: as §1, §2
# [5] = system: Pasteurella multocida PM 10775 (080130003051); assay: MIC, broth-microdilution (CLSI), strain PM 10775; conditions: Pasteurella multocida 080130003051, BRD field isolate
# Experimental: as §1, §2
# [6] = system: Mannheimia haemolytica MH 6374 (ATCC 33396); assay: MIC, broth-microdilution (CLSI), strain MH 6374; conditions: Mannheimia haemolytica ATCC 33396, reference strain
# Experimental: as §1, §2
# [7] = system: Pasteurella multocida PM 6391 (ATCC 43137); assay: MIC, broth-microdilution (CLSI), strain PM 6391; conditions: Pasteurella multocida ATCC 43137, reference strain
# Experimental: as §1, §2
# [8] = system: Mannheimia haemolytica MH 10720 (154); assay: MIC, broth-microdilution (CLSI), strain MH 10720; conditions: Mannheimia haemolytica 154, BRD field isolate
# Experimental: as §1, §2
# [9] = system: Mannheimia haemolytica MH 6357 (M7/2); assay: MIC, broth-microdilution (CLSI), strain MH 6357; conditions: Mannheimia haemolytica M7/2, reference strain (cattle infection strain)
# Experimental: as §1, §2
# [10] = system: Pasteurella multocida PM 12080 (IV102277-0093); assay: MIC, broth-microdilution (CLSI), strain PM 12080; conditions: Pasteurella multocida IV102277-0093, BRD field isolate
# Experimental: as §1, §2
Compound,MIC MH 13065 [1],MIC MH 13093 [2],MIC PM 6267 [3],MIC MH 12587 [4],MIC PM 10775 [5],MIC MH 6374 [6],MIC PM 6391 [7],MIC MH 10720 [8],MIC MH 6357 [9],MIC PM 12080 [10]
CNC(=O)C(NC(=O)c1ccc(C#Cc2ccc(CNC3CC3)cc2)cc1)C(=O)NO (centres unmarked) [Compound 1],0.4 µM,1.6 µM,≤0.1 µM,0.8 µM,≤0.1 µM,0.4 µM,≤0.1 µM,≤0.1 µM,0.4 µM,≤0.1 µM
C=CCNCc1ccc(C#Cc2ccc(C(=O)NC(C(=O)NC)C(=O)NO)cc2)cc1 (centres unmarked) [Compound 2],0.8 µM,1.6 µM,0.2 µM,0.8 µM,≤0.1 µM,1.6 µM,0.4 µM,0.4 µM,0.8 µM,≤0.1 µM
CNC(=O)C(NC(=O)c1ccc(C#Cc2ccc(CNCCOC)cc2)cc1)C(=O)NO (centres unmarked) [Compound 3],1.6 µM,1.6 µM,0.2 µM,6.3 µM,≤0.1 µM,3.1 µM,0.4 µM,0.8 µM,1.6 µM,0.4 µM
CNC(=O)C(NC(=O)c1ccc(C#Cc2ccc(CN3CCOCC3)cc2)cc1)C(=O)NO (centres unmarked) [Compound 4],1.6 µM,1.6 µM,≤0.1 µM,6.3 µM,≤0.1 µM,3.1 µM,≤0.1 µM,0.4 µM,1.6 µM,≤0.1 µM
CNC(=O)C(NC(=O)c1ccc(C#Cc2ccc(CNCc3ccccc3)cc2)cc1)C(=O)NO (centres unmarked) [Compound 5],0.8 µM,1.6 µM,≤0.1 µM,1.6 µM,≤0.1 µM,0.8 µM,0.2 µM,≤0.1 µM,0.4 µM,≤0.1 µM
CNC(=O)C(NC(=O)c1ccc(C#Cc2ccc(CNCc3ccc(OC)cc3)cc2)cc1)C(=O)NO (centres unmarked) [Compound 6],0.8 µM,1.6 µM,≤0.1 µM,1.6 µM,≤0.1 µM,0.8 µM,0.2 µM,≤0.1 µM,0.4 µM,≤0.1 µM
CNC(=O)C(NC(=O)c1ccc(C#Cc2ccc(CN3CCCC3)cc2)cc1)C(=O)NO (centres unmarked) [Compound 7],12.5 µM,6.3 µM,≤0.1 µM,12.5 µM,0.2 µM,12.5 µM,0.4 µM,1.6 µM,3.1 µM,0.8 µM
CNC(=O)C(NC(=O)c1ccc(C#Cc2ccc(CNC3CCC3)cc2)cc1)C(=O)NO (centres unmarked) [Compound 8],6.3 µM,6.3 µM,≤0.1 µM,12.5 µM,≤0.1 µM,6.3 µM,0.4 µM,1.6 µM,3.1 µM,0.4 µM
CNC(=O)C(NC(=O)c1ccc(C#Cc2ccc(CNC3CCCC3)cc2)cc1)C(=O)NO (centres unmarked) [Compound 9],12.5 µM,12.5 µM,0.4 µM,25 µM,0.2 µM,25 µM,0.4 µM,3.1 µM,6.3 µM,0.4 µM
CCCNCc1ccc(C#Cc2ccc(C(=O)NC(C(=O)NC)C(=O)NO)cc2)cc1 (centres unmarked) [Compound 10],3.1 µM,1.6 µM,0.8 µM,12.5 µM,0.2 µM,6.3 µM,0.8 µM,1.6 µM,3.1 µM,0.8 µM
CNC(=O)C(NC(=O)c1ccc(C#Cc2ccc(CNCc3cccnc3)cc2)cc1)C(=O)NO (centres unmarked) [Compound 11],0.8 µM,1.6 µM,≤0.1 µM,0.8 µM,≤0.1 µM,0.8 µM,0.2 µM,0.2 µM,0.4 µM,≤0.1 µM
CNC(=O)C(NC(=O)c1ccc(C#Cc2ccc(CNCc3ccnc(Cl)c3)cc2)cc1)C(=O)NO (centres unmarked) [Compound 12],0.4 µM,0.4 µM,≤0.1 µM,0.8 µM,≤0.1 µM,0.4 µM,≤0.1 µM,≤0.1 µM,0.2 µM,≤0.1 µM
CNC(=O)C(NC(=O)c1ccc(C#Cc2ccc(CNCc3ccccn3)cc2)cc1)C(=O)NO (centres unmarked) [Compound 13],1.6 µM,0.8 µM,≤0.1 µM,1.6 µM,≤0.1 µM,0.8 µM,0.2 µM,0.2 µM,0.8 µM,≤0.1 µM
CNC(=O)C(NC(=O)c1ccc(C#Cc2ccc(CNCc3ccco3)cc2)cc1)C(=O)NO (centres unmarked) [Compound 14],0.4 µM,0.8 µM,≤0.1 µM,0.4 µM,≤0.1 µM,0.4 µM,≤0.1 µM,0.2 µM,0.4 µM,≤0.1 µM
CNC(=O)C(NC(=O)c1ccc(C#Cc2ccc(CNCc3cccs3)cc2)cc1)C(=O)NO (centres unmarked) [Compound 15],0.2 µM,0.2 µM,≤0.1 µM,0.8 µM,≤0.1 µM,0.2 µM,≤0.1 µM,≤0.1 µM,0.2 µM,≤0.1 µM
CNC(=O)C(NC(=O)c1ccc(C#Cc2ccc(CNCc3ccc(C)cc3)cc2)cc1)C(=O)NO (centres unmarked) [Compound 16],0.8 µM,1.6 µM,≤0.1 µM,1.6 µM,≤0.1 µM,0.8 µM,0.4 µM,0.2 µM,0.4 µM,0.2 µM
CNC(=O)C(NC(=O)c1ccc(C#Cc2ccc(CNCC3CCCO3)cc2)cc1)C(=O)NO (centres unmarked) [Compound 17],3.1 µM,12.5 µM,≤0.1 µM,12.5 µM,≤0.1 µM,6.3 µM,0.4 µM,0.8 µM,3.1 µM,0.2 µM
CNC(=O)C(NC(=O)c1ccc(C#Cc2ccc(CNCc3nccs3)cc2)cc1)C(=O)NO (centres unmarked) [Compound 18],0.4 µM,0.4 µM,≤0.1 µM,0.8 µM,≤0.1 µM,0.4 µM,≤0.1 µM,0.2 µM,0.4 µM,≤0.1 µM
CNC(=O)C(NC(=O)c1ccc(C#Cc2ccc(CNCC(F)(F)F)cc2)cc1)C(=O)NO (centres unmarked) [Compound 19],0.2 µM,0.2 µM,≤0.1 µM,0.8 µM,≤0.1 µM,0.4 µM,≤0.1 µM,≤0.1 µM,0.2 µM,≤0.1 µM
C#CCNCc1ccc(C#Cc2ccc(C(=O)NC(C(=O)NC)C(=O)NO)cc2)cc1 (centres unmarked) [Compound 20],0.2 µM,0.4 µM,≤0.1 µM,0.8 µM,≤0.1 µM,0.2 µM,≤0.1 µM,≤0.1 µM,0.2 µM,≤0.1 µM
